Data as given in ChEMBL document CHEMBL1201862, “PubChem BioAssay data set” (2004).
Active and inactive are the calls of the source.

How the values were obtained:
[1] = tested on: HEK293; assay: inhibitors of LMP1-driven NF-kB reporter, dose response, cell-based, HEK293, luciferase, cherry-pick (AID 588343); format: functional; conditions: Homo sapiens
[2] = target: Dual specificity tyrosine-phosphorylation-regulated kinase 1A (Rattus norvegicus, UniProt Q63470); format: biochemical, Homo sapiens
[3] = target: T1, DNA repair and recombination protein RAD54-like (Homo sapiens, UniProt Q92698); assay: inhibitors of human RAD54 branch migration, confirmation, biochemical, fluorescence, cherry-picked samples, dose series (AID 651657); format: functional
T1 sequence (Q92698 whole entry): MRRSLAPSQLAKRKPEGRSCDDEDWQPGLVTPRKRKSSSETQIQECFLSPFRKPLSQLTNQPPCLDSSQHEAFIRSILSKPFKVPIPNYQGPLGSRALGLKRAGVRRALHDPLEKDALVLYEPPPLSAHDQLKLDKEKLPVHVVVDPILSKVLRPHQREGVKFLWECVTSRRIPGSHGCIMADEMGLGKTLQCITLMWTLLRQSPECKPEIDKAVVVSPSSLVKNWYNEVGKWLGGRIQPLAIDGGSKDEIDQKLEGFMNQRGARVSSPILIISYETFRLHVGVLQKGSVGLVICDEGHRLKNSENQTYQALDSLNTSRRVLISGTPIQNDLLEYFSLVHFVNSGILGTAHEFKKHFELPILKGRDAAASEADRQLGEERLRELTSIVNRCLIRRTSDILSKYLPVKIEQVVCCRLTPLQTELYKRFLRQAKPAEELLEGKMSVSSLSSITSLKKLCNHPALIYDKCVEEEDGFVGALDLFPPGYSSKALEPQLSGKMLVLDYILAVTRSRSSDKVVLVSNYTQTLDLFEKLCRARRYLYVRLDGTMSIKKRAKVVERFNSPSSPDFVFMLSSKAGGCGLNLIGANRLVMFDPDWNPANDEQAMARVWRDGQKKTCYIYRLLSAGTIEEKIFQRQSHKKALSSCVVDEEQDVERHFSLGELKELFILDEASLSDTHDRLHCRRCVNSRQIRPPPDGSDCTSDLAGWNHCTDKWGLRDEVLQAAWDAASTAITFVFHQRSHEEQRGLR

[4] = target: Endoplasmic reticulum aminopeptidase 1 (Homo sapiens, UniProt Q9NZ08); assay: ERAP1 aminopeptidase inhibitors, dose response, biochemical, cherry-pick, set 2, plate reader (AID 743314)
[5] = inhibitors of Vif binding to APOBEC3G peptide, primary screen, biochemical, TR-FRET, GST-Vif 1-94, biotin-A3G peptide, dose response retest (AID 1117319); format: functional;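 note: TR-FRET signal of purified GST-Vif binding a biotinylated A3G peptide; inhibitors lower the FRET signal by blocking Vif and A3G binding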
[6] = target: T2, Microphthalmia-associated transcription factor (Homo sapiens, UniProt O75030); assay: TRPM1 promoter luciferase signal decrease, dose response, MITF inhibitor project, cell-based, SK-MEL-5, cherry-picked, set 3 (AID 493073); format: functional
T2 sequence (O75030 whole entry): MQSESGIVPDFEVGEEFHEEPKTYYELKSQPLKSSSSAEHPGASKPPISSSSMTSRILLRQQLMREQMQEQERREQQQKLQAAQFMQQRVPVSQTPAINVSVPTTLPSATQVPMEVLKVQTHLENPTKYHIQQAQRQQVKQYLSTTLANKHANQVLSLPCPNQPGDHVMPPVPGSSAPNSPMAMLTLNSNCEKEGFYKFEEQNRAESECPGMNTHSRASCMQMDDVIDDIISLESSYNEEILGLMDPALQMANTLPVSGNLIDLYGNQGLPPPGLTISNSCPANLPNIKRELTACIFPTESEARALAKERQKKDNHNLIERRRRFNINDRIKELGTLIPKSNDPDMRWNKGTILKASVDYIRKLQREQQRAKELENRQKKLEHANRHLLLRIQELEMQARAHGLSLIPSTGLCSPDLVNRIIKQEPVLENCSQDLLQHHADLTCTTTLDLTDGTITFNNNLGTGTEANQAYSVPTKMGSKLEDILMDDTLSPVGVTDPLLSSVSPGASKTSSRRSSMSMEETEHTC

[7] = tested on: BJ; assay: cells; format: functional, cell-based; conditions: Homo sapiens
[8] = cells; format: functional, cell-based
[9] = tested on: INS1; assay: beta cell apoptosis inhibitors, cytokine rescue, dose response, luminescence, retest (AID 449756); format: functional, cell-based; conditions: Rattus norvegicus;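 note: cell death triggered by IL-1 beta plus TNF-alpha plus IFN-gamma mixture; protective hits raise ATP signal compared with cytokine alone wells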
[10] = tested on: BJ; assay: cytotoxicity toward BJ-TERT-LT-ST fibroblasts, dose response, cell-based, RAS-independent, luminescence (AID 1935); format: functional; conditions: Homo sapiens;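 note: BJ fibroblasts immortalized with TERT plus LT and ST oncogenes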
[11] = C. albicans growth with fluconazole, confirmation, fluorescence, retest (AID 2467); format: functional, cell-based
[12] = tested on: BJ; assay: cytotoxicity toward BJ-TERT fibroblasts, dose response, cell-based, RAS-independent, luminescence (AID 1933); format: functional; conditions: Homo sapiens
[13] = NIH-3T3 fibroblast cytotoxicity, dose response, cytotoxicity control, cell-based, fluorescence, Alamar Blue, secondary assay (AID 2327); format: functional;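 note: NIH-3T3 mouse fibroblasts cultured with fluconazole at 8 µg/mL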
[14] = cells; format: functional, cell-based; remark: listed apart in the source
[15] = cytotoxicity toward DRD oncogenic fibroblasts, dose response, cell-based, non-viral oncogenic, luminescence (AID 1934); format: functional; conditions: Homo sapiens
[16] = target: Cytochrome P450 2C19 (Homo sapiens, UniProt P33261); assay: Cytochrome panel assay with activity outcomes. Panel member name: p450-cyp2c19 Compounds with AC50 equal or less than 10 uM are considered active; format: functional
[17] = target: Cytochrome P450 3A4 (Homo sapiens, UniProt P08684);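 note: CYP3A4 tested as one member of a cytochrome P450 panel screen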
[18] = target: T3, Cytochrome P450 1A2 (Homo sapiens, UniProt P05177);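 note: PubChem cytochrome P450 panel assay, CYP1A2 panel member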
T3 sequence (P05177 whole entry): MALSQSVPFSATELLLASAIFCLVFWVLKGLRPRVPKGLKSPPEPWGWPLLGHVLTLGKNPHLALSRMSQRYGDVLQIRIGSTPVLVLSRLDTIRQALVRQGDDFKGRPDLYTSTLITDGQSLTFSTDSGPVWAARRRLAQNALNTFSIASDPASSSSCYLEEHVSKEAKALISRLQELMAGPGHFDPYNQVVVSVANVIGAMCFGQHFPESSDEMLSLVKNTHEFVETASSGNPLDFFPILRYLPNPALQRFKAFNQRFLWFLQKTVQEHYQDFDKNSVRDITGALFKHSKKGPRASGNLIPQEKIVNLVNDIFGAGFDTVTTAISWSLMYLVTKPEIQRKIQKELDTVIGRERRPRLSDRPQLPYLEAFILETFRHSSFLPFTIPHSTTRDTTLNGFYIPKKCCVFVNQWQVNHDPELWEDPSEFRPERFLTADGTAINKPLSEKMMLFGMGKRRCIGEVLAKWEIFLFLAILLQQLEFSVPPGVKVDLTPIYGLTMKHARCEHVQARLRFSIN

[19] = target: T4, Protein Tat (Human immunodeficiency virus type 1 group M subtype B (isolate HXB2)(HIV-1), UniProt P04608); format: functional;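 note: tat binding to TAR RNA read out by fluorescence polarization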
T4 sequence (P04608 whole entry): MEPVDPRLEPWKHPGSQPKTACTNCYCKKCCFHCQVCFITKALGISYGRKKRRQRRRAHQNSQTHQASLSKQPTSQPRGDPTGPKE

[20] = Jurkat T cell cytotoxicity, dose response, cytotoxicity control for P. falciparum gametocyte viability project, luminescence (AID 1117277); format: functional, cell-based;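 note: potency reflects loss of cellular ATP meaning fewer viable cells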
[21] = P. falciparum late gametocyte killing, dose response, luminescence (AID 1117278); format: functional, cell-based;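 note: gametocytes exposed to compound for 24 hours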
[22] = target: T5, Serine/threonine-protein phosphatase (Candida dubliniensis (strain CD36 / CBS 7987 / NCPF 3949 / NRRLY-17841) (Yeast), UniProt B9W6M3); assay: calcineurin pathway inhibitors in yeast reporter, dose response, S. cerevisiae, CDRE-lacZ, luminescence, secondary (AID 2388); format: functional, cell-based;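 note: yeast reporter cells carrying a calcineurin-responsive lacZ construct stimulated with calcium chloride; luminescent beta-galactosidase reporter signal in whole cells rather than isolated phosphatase activity; potency for inhibition where a drop in reporter signal means calcineurin blockade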
T5 sequence (B9W6M3 whole entry): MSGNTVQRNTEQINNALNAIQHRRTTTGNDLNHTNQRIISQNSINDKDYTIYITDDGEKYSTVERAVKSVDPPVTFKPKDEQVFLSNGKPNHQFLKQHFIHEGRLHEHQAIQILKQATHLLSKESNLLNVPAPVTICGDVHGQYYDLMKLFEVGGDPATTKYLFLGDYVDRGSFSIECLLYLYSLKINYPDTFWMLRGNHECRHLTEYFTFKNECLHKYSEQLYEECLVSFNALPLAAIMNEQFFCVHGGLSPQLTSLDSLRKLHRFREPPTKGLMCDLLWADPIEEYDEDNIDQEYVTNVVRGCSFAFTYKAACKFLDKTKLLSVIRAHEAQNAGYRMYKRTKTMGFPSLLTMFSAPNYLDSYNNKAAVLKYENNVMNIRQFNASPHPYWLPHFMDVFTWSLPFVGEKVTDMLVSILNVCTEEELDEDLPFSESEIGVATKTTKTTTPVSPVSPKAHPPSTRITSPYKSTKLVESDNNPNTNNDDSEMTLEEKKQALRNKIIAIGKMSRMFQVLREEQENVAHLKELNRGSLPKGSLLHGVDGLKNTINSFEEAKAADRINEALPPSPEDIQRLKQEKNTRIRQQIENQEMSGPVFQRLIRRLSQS

[23] = target: ATP-dependent molecular chaperone HSP82 (Candida albicans (strain WO-1) (Yeast), UniProt C4YTQ8); assay: loss of DOC-induced GRE-beta-galactosidase reporter signal, dose response, Hsp90 inhibitor project, S. cerevisiae, luminescence (AID 2400); format: functional, cell-based;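 note: beta-galactosidase luminescence from glucocorticoid response element reporter as proxy for Hsp90 function; inhibitor potency where signal loss means Hsp90 inhibition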
[24] = THP-1 cell cytotoxicity, dose response, cytotoxicity control for Vif-APOBEC3G degradation inhibitor project, THP-1 cells (AID 1117359); format: functional; conditions: Human immunodeficiency virus 1, THP-1

Sequence of Endoplasmic reticulum aminopeptidase 1 (Q9NZ08 whole entry): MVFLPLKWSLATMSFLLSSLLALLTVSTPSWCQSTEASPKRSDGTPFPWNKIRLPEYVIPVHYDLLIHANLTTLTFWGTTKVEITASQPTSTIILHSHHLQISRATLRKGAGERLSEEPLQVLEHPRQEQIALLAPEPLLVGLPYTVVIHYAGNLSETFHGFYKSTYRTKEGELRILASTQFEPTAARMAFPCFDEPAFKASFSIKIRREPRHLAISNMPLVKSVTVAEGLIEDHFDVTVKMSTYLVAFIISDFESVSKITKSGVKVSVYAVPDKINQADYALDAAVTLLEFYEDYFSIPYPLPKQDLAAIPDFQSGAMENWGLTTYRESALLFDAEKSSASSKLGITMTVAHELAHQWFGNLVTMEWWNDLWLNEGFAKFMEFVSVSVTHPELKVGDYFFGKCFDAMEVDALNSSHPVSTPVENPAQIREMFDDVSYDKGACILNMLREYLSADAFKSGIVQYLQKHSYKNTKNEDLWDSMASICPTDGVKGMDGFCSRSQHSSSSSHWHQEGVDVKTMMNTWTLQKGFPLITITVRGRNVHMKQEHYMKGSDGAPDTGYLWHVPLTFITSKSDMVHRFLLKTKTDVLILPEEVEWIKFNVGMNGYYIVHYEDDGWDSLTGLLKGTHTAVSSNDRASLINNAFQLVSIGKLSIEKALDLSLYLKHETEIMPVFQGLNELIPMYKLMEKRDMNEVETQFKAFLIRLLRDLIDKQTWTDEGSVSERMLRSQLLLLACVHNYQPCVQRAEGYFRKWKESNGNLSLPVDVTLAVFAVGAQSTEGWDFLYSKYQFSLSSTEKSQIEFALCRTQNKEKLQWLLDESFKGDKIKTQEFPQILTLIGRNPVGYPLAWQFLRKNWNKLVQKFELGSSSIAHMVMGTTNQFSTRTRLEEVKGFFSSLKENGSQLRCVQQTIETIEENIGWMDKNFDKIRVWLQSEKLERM
Sequence of Cytochrome P450 3A4 (P08684 whole entry): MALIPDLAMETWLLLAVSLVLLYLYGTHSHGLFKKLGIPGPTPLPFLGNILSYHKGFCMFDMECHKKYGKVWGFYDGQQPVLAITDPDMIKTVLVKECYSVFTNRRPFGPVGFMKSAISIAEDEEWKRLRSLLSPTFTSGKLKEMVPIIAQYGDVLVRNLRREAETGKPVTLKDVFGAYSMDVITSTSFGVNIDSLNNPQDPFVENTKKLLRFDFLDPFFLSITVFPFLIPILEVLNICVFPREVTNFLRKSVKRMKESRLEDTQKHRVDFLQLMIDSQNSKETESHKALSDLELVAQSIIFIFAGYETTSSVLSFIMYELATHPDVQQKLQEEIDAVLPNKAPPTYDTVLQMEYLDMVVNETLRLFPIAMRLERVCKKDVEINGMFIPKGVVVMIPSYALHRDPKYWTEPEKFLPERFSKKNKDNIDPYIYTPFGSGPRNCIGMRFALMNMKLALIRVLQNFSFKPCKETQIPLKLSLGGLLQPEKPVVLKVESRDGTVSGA
Sequence of Cytochrome P450 2C19 (P33261 whole entry): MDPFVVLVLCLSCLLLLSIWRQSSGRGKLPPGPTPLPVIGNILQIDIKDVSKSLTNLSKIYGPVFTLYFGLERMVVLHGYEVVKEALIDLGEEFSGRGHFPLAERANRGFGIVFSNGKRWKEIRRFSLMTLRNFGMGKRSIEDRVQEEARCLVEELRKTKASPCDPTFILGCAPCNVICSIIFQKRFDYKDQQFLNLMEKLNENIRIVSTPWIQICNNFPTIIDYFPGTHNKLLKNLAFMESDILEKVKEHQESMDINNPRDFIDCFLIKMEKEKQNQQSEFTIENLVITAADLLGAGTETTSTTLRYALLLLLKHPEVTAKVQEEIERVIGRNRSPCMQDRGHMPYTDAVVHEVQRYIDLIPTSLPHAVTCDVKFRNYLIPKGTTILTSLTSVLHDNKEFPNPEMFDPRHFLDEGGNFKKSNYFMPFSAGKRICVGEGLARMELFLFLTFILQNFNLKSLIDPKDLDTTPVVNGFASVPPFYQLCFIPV
Sequence of ATP-dependent molecular chaperone HSP82 (C4YTQ8 whole entry): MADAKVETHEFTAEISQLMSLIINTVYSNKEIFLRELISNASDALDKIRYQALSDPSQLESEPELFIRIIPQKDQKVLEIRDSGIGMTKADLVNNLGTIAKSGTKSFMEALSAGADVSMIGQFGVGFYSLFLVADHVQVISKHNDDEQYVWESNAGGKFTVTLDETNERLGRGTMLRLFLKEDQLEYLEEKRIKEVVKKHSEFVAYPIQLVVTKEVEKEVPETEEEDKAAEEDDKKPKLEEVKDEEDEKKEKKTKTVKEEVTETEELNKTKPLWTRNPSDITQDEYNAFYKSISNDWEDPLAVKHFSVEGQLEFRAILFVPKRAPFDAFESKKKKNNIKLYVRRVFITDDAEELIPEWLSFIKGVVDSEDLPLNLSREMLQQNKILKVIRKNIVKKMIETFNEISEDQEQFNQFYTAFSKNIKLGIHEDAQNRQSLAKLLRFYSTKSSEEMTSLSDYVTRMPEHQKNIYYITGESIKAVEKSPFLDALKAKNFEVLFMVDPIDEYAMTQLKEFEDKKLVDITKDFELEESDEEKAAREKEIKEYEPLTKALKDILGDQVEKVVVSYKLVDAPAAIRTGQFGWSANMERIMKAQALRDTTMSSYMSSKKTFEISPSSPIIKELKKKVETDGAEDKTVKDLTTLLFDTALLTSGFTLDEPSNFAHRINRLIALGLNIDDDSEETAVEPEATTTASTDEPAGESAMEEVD

## CC1(C)Cc2nc3sc4c(SCC(=O)O)ncnc4c3cc2CO1
[1]
  AC50: 4.58 µM (active)
[2]
  AC50: 2.6 µM (active)

## O=C1c2cccc3cccc(c23)C(=O)N1CCCn1ccnc1
[3]
  AC50: 20.2 µM (active)

## CCCc1cc(=O)oc2c(CN3CCN(C)CC3)c(O)ccc12
[4]
  AC50: 7.87 µM (active)

## CCCn1c(O)nnc1SCC(=O)c1cc(C)ccc1C
[5]
  IC50: > 100 µM (active)

## COc1ccc(O)c(/C=N/NC(=O)c2ccc(CSc3nc(C)cc(C)n3)cc2)c1
[6]
  AC50: 9.31 µM (active)
[7]
  EC50: 17.5 µM (inconclusive)
[8]
  EC50: 24 µM (active)
[9]
  AC50: 4.6 µM (active)
[10]
  EC50: > 75 µM (not active)
[11]
  EC50: > 38 µM (not active)
[12]
  EC50: 20.6 µM (active)
[13]
  EC50: > 150 µM (inactive)
[14]
  EC50: > 350 µM (not active)
[15]
  EC50: 27.7 µM (active)

## O=C(Nc1nnc(COc2ccc(Cl)cc2)s1)c1ccc([N+](=O)[O-])cc1
[16]
  AC50: inconclusive
[17]
  AC50: inconclusive

## Cn1c(=O)c(-c2ccc(Cl)cc2)nc2cnc(Oc3cccc(Cl)c3)nc21
[18]
  AC50: 0.251 µM (inconclusive)
[17]
  AC50: inconclusive

## COCCCNC(=O)c1cccn2c(=O)c3cc4ccccc4cc3nc12
[19]
  IC50: > 100 µM (active)

## C#C[C@@]1(OC(C)=O)CC[C@@H]2[C@@H]3CCC4=C[C@@H](OC(C)=O)CC[C@H]4[C@H]3CC[C@]21C
[17]
  AC50: inconclusive

## CC(=O)N1[C@@H]2Cn3c(ccc(/C=C/c4ccccc4)c3=O)[C@H]1[C@@H](C(=O)NCC1CC1)[C@@H]2CO
[4]
  AC50: 8.13 µM (active)

## Cc1cc(=O)oc2cc(NS(=O)(=O)c3ccc(F)cc3)ccc12
[4]
  AC50: 8.8 µM (active)

## CCOc1ccc(S(=O)(=O)N2CCCC2)cc1
[20]
  IC50: > 83.3 µM (inactive)
[21]
  IC50: > 109 µM (inactive)

## COc1ccc(CN2C(=O)c3ccccc3C2C(=O)NCc2cccnc2)c(OC)c1 (centres undefined)
[5]
  IC50: > 100 µM (active)

## COCCn1cnc2c1c(=O)n(CC(=O)Nc1cc(C)on1)c(=O)n2Cc1ccccc1
[20]
  IC50: > 83.3 µM (inactive)
[21]
  IC50: > 109 µM (inactive)

## COc1cc(O)c2c(=O)c3c(O)c(O)ccc3oc2c1OC
[2]
  AC50: 2.06 µM (active)

## O=C(N/N=C/c1cc([N+](=O)[O-])ccc1O)c1ccc(COc2ccc3c(c2)CCC3)o1
[11]
  EC50: 1.19 µM (active)
[13]
  EC50: 11.6 µM (active)
[22]
  EC50: > 180 µM (inactive)
[23]
  EC50: 28.3 µM (active)

## COc1ccc(N(CC(=O)NCc2ccccc2C)S(=O)(=O)c2ccc(C)cc2)cc1OC
[5]
  IC50: > 100 µM (active)

## Cc1ccc(S(=O)(=O)N2CCN(C(=O)CCC(=O)NCCc3ccc(F)cc3)CC2)cc1
[20]
  IC50: > 83.3 µM (inactive)
[21]
  IC50: > 109 µM (inactive)

## O=C(Nc1ccc(Cl)cc1)Nc1ccc2c(c1)N1CCN=C1S2
[2]
  AC50: 1.07 µM (active)

## CCOC(=O)N1CCN(C(=O)c2ccc3c(=O)n(-c4ccc(OC)cc4)c(=S)[nH]c3c2)CC1
[18]
  AC50: 39.8 µM (inconclusive)
[17]
  AC50: inconclusive

## COc1ccc(/C=C2\SC(=N)NC2=O)cc1
[2]
  AC50: 0.038 µM (active)

## S=C(Nc1ccc2c(c1)OCCO2)Nc1ccc2c(c1)OCO2
[24]
  CC50: > 40 µM (active)
[19]
  IC50: > 100 µM (active)
[5]
  IC50: > 100 µM (active)

## O=C(c1cnccn1)N1CCC2(CC1)CN(c1ccccn1)C2
[17]
  AC50: inconclusive
